Laboratory results taken from patent US11147272B2, “Pyridone compounds and agricultural and horticultural fungicides comprising the same as active ingredients” (MITSUI CHEMICALS AGRO, INC., priority 2017, dated 2021).

Experiments:
Puccinia recondita = assay: Test Example E: Brown rust on wheat; type: in vivo; details: for Test E control value class: class of control value
Botrytis cinerea = assay: Test Example B: Gray mold on tomato; details: for Test B control value class: class of control value
[1] = test system: Blumeria graminis f. sp. hordei; assay: Test Example D: Powdery mildew on barley; details: for Test D control value class: class of control value
Magnaporthe grisea = assay: whole plant or invertebrate; type: in vivo; details: for Test A control value class: class of control value
Alternaia brassicicola = assay: Test Example C: Alternaria sooty spot on cabbage; type: in vivo; details: for Test C control value class: class of control value
From the text: Seeds of a test plant (cabbage variety: Shikidori) were planted and cultivated until the cotyledons extended.
<Control Value> Control value=100{1−(n/3)}

[2] = test system: Colletotrichum orbiculare; assay: Test Example H: Anthracnose on cucumber; details: for Test H control value class: Anthracnose on cucumber (Sagami Hanjiro), 2.5 ml/pot, assessed 6 to 10 days after inoculation; for Test H control value: 6 to 10 days after inoculation
Plasmopara viticola = assay: Test Example G: Downy mildew on vine; details: for Test G control value class: Downy mildew on vine (Neomuscat), 2.5 ml/pot, assessed 7 to 10 days after inoculation; for Test G control value: 7 to 10 days after inoculation
Phytophthora infestans = assay: whole plant or invertebrate; type: in vivo; details: for Test F control value class: class of control value
[3] = Alternaria sooty spot on cabbage
[4] = 250 ppm drug solution sprayed on test plant
[5] = 250 ppm drug solution sprayed (2.5 ml/pot), cucumber Sagami Hanjiro
[6] = 250 ppm drug solution sprayed (2.5 ml/pot), grape Neomuscat
[7] = Brown rust on wheat, control value class
[8] = Gray mold on tomato, control value class
[9] = Powdery mildew on barley, control value class
[10] = Blast on rice, control value class
[11] = Alternaria sooty spot on cabbage, control value class
[12] = Anthracnose on cucumber, 250 ppm spray
[13] = Downy mildew on vine, 250 ppm spray
[14] = Late blight on tomato, control value class

Structure (SMILES)	Test E control value (Puccinia recondita; [4])	Test B control value (Botrytis cinerea; [4])	Test D control value [1, 4]	Test A control value (Magnaporthe grisea; [4])	Test C control value (Alternaia brassicicola; [4])	Test H control value [2, 5]	Test G control value (Plasmopara viticola; [6])	Test F control value (Phytophthora infestans; [4])	Test E control value (Puccinia recondita; [7])	Test B control value (Botrytis cinerea; [8])	Test D control value [1, 9]	Test A control value (Magnaporthe grisea; [10])	Test C control value (Alternaia brassicicola; [11])	Test H control value [2, 12]	Test G control value (Plasmopara viticola; [13])	Test F control value (Phytophthora infestans; [14])	also measured
CCn1c(-c2c(F)cc(F)cc2F)c(C(C)(OC)C(C)C)cc(Cl)c1=O (racemic) [compound 107]																	Test E control value class (Puccinia recondita; Brown rust on wheat): H (more than 50% control value); Test B control value class (Botrytis cinerea; Gray mold on tomato): H (more than 50% control value); Test D control value class ([1]; Powdery mildew on barley): H (more than 50% control value); Test A control value class (Magnaporthe grisea; Blast on rice): H (more than 50% control value); Test C control value class (Alternaia brassicicola; [3]): H (more than 50% control value); Test H control value class ([2]; 250 ppm spray): H (more than 50% control value); Test G control value class (Plasmopara viticola; 250 ppm spray): H (more than 50% control value); Test F control value class (Phytophthora infestans; Late blight on tomato): L (50% or less control value)
CCCc1cc(Br)c(=O)n(CC)c1-c1ccc(OC)cc1C [compound 413]	H (more than 50% control value)	H (more than 50% control value)	L (50% or less control value)	H (more than 50% control value)	H (more than 50% control value)	H (more than 50% control value)	L (50% or less control value)	L (50% or less control value)									
CCCc1ccc(=O)n(CC)c1-c1ccc(OC)cc1Br [compound 370]									H (more than 50% control value)	H (more than 50% control value)	H (more than 50% control value)	L (50% or less control value)	H (more than 50% control value)	H (more than 50% control value)	H (more than 50% control value)	H (more than 50% control value)	
CCC(=O)c1ccc(=O)n(CC)c1-c1c(F)cc(F)cc1F [compound 480]	L (50% or less control value)	H (more than 50% control value)	H (more than 50% control value)	L (50% or less control value)	L (50% or less control value)	H (more than 50% control value)	L (50% or less control value)	L (50% or less control value)									
CC#CCOc1cc(F)c(-c2c(CCC)cc(Cl)c(=O)n2CC)c(F)c1 [compound 461]	H (more than 50% control value)	H (more than 50% control value)	H (more than 50% control value)	H (more than 50% control value)	H (more than 50% control value)	H (more than 50% control value)	H (more than 50% control value)	L (50% or less control value)									
CCCc1cc(Cl)c(=O)n(CC)c1-c1ccc(OC)cc1C [compound 412]	H (more than 50% control value)	H (more than 50% control value)	H (more than 50% control value)	H (more than 50% control value)	H (more than 50% control value)	H (more than 50% control value)	L (50% or less control value)	H (more than 50% control value)									
CCn1c(-c2ccc(C#N)cc2)c(C(C)(O)C(C)C)cc(Cl)c1=O (centres unmarked) [compound 235]									H (more than 50% control value)	L (50% or less control value)	L (50% or less control value)	L (50% or less control value)	H (more than 50% control value)	L (50% or less control value)	L (50% or less control value)	L (50% or less control value)	
CCn1c(-c2ccc(F)cc2C)c(CC(C)C)cc(Br)c1=O [compound 204]									H (more than 50% control value)	H (more than 50% control value)	H (more than 50% control value)	H (more than 50% control value)	H (more than 50% control value)	H (more than 50% control value)	H (more than 50% control value)	L (50% or less control value)	
CCOC(C)(CC)c1cc(Cl)c(=O)n(C)c1-c1c(F)cc(F)cc1F (centres unmarked) [compound 509]	H (more than 50% control value)	L (50% or less control value)	H (more than 50% control value)	H (more than 50% control value)	L (50% or less control value)	H (more than 50% control value)	H (more than 50% control value)	L (50% or less control value)									
CCn1c(-c2c(F)cc(OC)cc2F)c(CN(OC)C(C)=O)cc(Cl)c1=O [compound 130]																	Test E control value class (Puccinia recondita; Brown rust on wheat): H (more than 50% control value); Test B control value class (Botrytis cinerea; Gray mold on tomato): L (50% or less control value); Test D control value class ([1]; Powdery mildew on barley): L (50% or less control value); Test A control value class (Magnaporthe grisea; Blast on rice): H (more than 50% control value); Test C control value class (Alternaia brassicicola; [3]): H (more than 50% control value); Test H control value class ([2]; 250 ppm spray): H (more than 50% control value); Test G control value class (Plasmopara viticola; 250 ppm spray): H (more than 50% control value); Test F control value class (Phytophthora infestans; Late blight on tomato): L (50% or less control value)
CCCc1ccc(=O)n(C)c1-c1ccc(F)cc1Br [compound 410]	H (more than 50% control value)	L (50% or less control value)	H (more than 50% control value)	L (50% or less control value)	L (50% or less control value)	L (50% or less control value)	L (50% or less control value)	L (50% or less control value)									
CCCc1cc(Cl)c(=O)n(C)c1-c1ccc(OC)cc1Cl [compound 335]									H (more than 50% control value)	H (more than 50% control value)	H (more than 50% control value)	H (more than 50% control value)	H (more than 50% control value)	H (more than 50% control value)	H (more than 50% control value)	L (50% or less control value)	
CCCc1ccc(=O)n(CC)c1-c1c(F)cccc1F [compound 426]	L (50% or less control value)	H (more than 50% control value)	L (50% or less control value)	H (more than 50% control value)	H (more than 50% control value)	H (more than 50% control value)	L (50% or less control value)	L (50% or less control value)									
